The text below walks through data of ChEMBL document CHEMBL1201862, “PubChem BioAssay data set” (2004).

Among the test systems are DMS-273; HOP-18; DLD-1; T47D; DMS-114; BT-549; XF498; RXF 631; LXFL 529.
Holding throughout (experiment): NCI tumour cell line growth inhibition, 48 h

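The compound was tested at five concentrations on cells cultured in 96-well plates, with a 48-hour exposure period. At the GI50, growth is halved.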 Active and inactive are the calls of the source. No stated cut-off is given here; in the data, active = GI50 up to about 1.1 µM and inactive = higher.

For the compound `O=C(NCCCCCCNC(=O)n1cc(F)c(=O)[nH]c1=O)NCCCOCCOCCOCCOCCOCCOCCOCCOCCOCCOCCOCCOCCOCCOCCOCCOCCOCCOCCOCCOCCOCCCNC(=O)C(O)C(O)C(OC1OC(CO)C(O)C(O)C1O)C(O)CO` (configuration not stated), the GI50 was 19.8 µM (inactive) in the assay on DMS-273; > 37 µM (inactive) in the assay with HOP-18; 22.6 µM (inactive) with DLD-1; 85.7 µM (inactive) with T47D; > 100 µM (inactive) in the assay with DMS-114; > 100 µM (inactive) in the assay with BT-549. For the same compound, in the assay with XF498, the GI50 is > 100 µM (inactive).

Turning to `Clc1ccc2nc(-c3ccccc3)nc(Cl)c2c1`, the GI50 was 55.5 µM (inactive) in the assay with DMS-273; 29.6 µM (inactive) in the assay with RXF 631; 60.1 µM (inactive) in the assay on DLD-1; 52.7 µM (inactive) in the assay with LXFL 529; 39.3 µM (inactive) with DMS-114.

As to `Cc1ccc(C)c(NC(=O)CC2C(=O)Nc3ccccc3S2(=O)=O)c1` (configuration not stated), the GI50 with DMS-273 is 28.1 µM (inactive); in the assay on RXF 631 it was > 100 µM (inactive); in the assay with DLD-1, > 100 µM (inactive); in the assay on LXFL 529, > 100 µM (inactive); in the assay with DMS-114, 45.4 µM (inactive); in the assay with XF498, 27.8 µM (inactive).

As for `O=C1OC(=O)C2C1C1(c3ccccc3)OC2(c2ccccc2)c2c(Br)c(Br)c(Br)c(Br)c21` (configuration not stated), the GI50 in the assay with DMS-273, in the assay with HOP-18, in the assay on DLD-1, in the assay on LXFL 529, in the assay on DMS-114 and in the assay with XF498 was > 100 µM (inactive) in each case.

Regarding `COc1ccc2[nH]c3c(c2c1)CCN(C)CC3`, the GI50 in the assay on DMS-273, in the assay on RXF 631, with HOP-18, in the assay with DLD-1 and in the assay on XF498 was > 100 µM (inactive) in each case.

Take `O=C(O)c1cc(=O)c2[nH]c3ccccc3c2s1`: the GI50 in the assay with RXF 631, with DLD-1, with LXFL 529, in the assay on DMS-114 and in the assay with XF498 was > 100 µM (inactive) in each case.

For the compound `SCc1ccc(-c2ccc(CS)cc2)cc1`, the GI50 in the assay on DMS-273 is 24.2 µM (inactive); in the assay on HOP-18, 16.4 µM (inactive); in the assay on DLD-1, 17 µM (inactive); in the assay on LXFL 529 it was 14.4 µM (inactive); in the assay on T47D, 19.7 µM (inactive); in the assay with DMS-114, 12.5 µM (inactive). The GI50 was 2.42 µM (inactive) in the assay on BT-549 and 20.6 µM (inactive) in the assay on XF498.

Consider `COc1ccc2c(=O)cc(-c3ccc(OC)c(OC)c3OC)oc2c1`, for which the GI50 in the assay on RXF 631 was 97.3 µM (inactive); with DLD-1, 53.3 µM (inactive); with LXFL 529, 40.4 µM (inactive); in the assay on T47D, > 100 µM (inactive); with DMS-114, 76.2 µM (inactive); in the assay with BT-549, > 100 µM (inactive). The GI50 with XF498 is 46.7 µM (inactive).

For the compound `Cc1cccc(C)c1NC(=O)C(=O)C(C#N)c1ccccc1Cl` (configuration not stated), the GI50 was > 100 µM (inactive) in the assay with DMS-273; 91.4 µM (inactive) with HOP-18; > 100 µM (inactive) with DLD-1; > 100 µM (inactive) in the assay on LXFL 529; > 100 µM (inactive) in the assay with DMS-114; > 100 µM (inactive) with XF498.

Regarding `C1OC1C1CO1` (configuration not stated), the GI50 with DMS-273 was 10.4 µM (inactive); with HOP-18, > 100 µM (inactive); with DLD-1, > 100 µM (inactive); with DMS-114, 10.4 µM (inactive); in the assay on XF498, > 100 µM (inactive).

As for `O=C1OC(c2ccccc2)=N/C1=C/NC(CO)C(=O)O` (configuration not stated), the GI50 is > 100 µM (inactive) in the assay on DMS-273; > 100 µM (inactive) in the assay on RXF 631; 45.6 µM (inactive) in the assay with HOP-18; > 100 µM (inactive) in the assay on DLD-1; > 100 µM (inactive) with LXFL 529; > 100 µM (inactive) with DMS-114. Moreover, the GI50 with XF498 was > 100 µM (inactive).

For the compound `O=c1[nH]c(Br)nc2c(Br)c[nH]c12`, the GI50 in the assay on DMS-273, in the assay with RXF 631, in the assay on HOP-18, in the assay with DLD-1, in the assay with LXFL 529 and in the assay with DMS-114 was > 100 µM (inactive) throughout. Moreover, in the assay on XF498, the GI50 was > 100 µM (inactive).

For the compound `COc1ccc2[nH]c3c(C)c4c(c(C)c3c2c1)CN(C)CC4`, the GI50 in the assay on DMS-273 is 13 µM (inactive); in the assay on RXF 631, 21.7 µM (inactive); in the assay with HOP-18 it was 10.6 µM (inactive); in the assay with DLD-1, 22.6 µM (inactive); in the assay with LXFL 529 it was 17 µM (inactive); in the assay with DMS-114 it was 18.6 µM (inactive).

`CCS(CC)(CC)CC1CCCC2=CCC(P(=O)(c3ccccc3)c3ccccc3)CC21` (configuration not stated): the GI50 in the assay with DMS-273 is 9.08 µM (inactive); in the assay with RXF 631, 13.6 µM (inactive); with HOP-18, 23.8 µM (inactive); in the assay on DLD-1 it was 11.2 µM (inactive); with LXFL 529, 9.64 µM (inactive); in the assay with DMS-114, 8.81 µM (inactive). The GI50 in the assay on XF498 was 5.81 µM (inactive).

Turning to `Nc1cc(=O)n(-c2ccccc2)c(=S)n1-c1ccccc1`, the GI50 in the assay with DMS-273, in the assay with DLD-1, in the assay with LXFL 529, in the assay with DMS-114 and with XF498 was > 100 µM (inactive) in each case.

`COc1ccc(C[C@H](N)C(=O)NC2C(CO)OC(n3cnc4c(N(C)C)ncnc43)C2O)cc1` (some centres not stated): the GI50 with DMS-273 is 0.258 µM (active); with RXF 631, 1 µM (active); in the assay with HOP-18 it was 2.13 µM (inactive); in the assay on DLD-1, 1.11 µM (active); in the assay on LXFL 529, 0.121 µM (active); with DMS-114, 0.17 µM (active). The GI50 in the assay with XF498 is 0.0458 µM (active).

With `Cc1cc2c3ccccc3n3c2c2c1OC1(C)CCC(C2C1)C3(C)C` (configuration not stated), the GI50 in the assay on DMS-273, with DLD-1, in the assay with LXFL 529, with DMS-114 and in the assay on XF498 was > 25 µM (inactive) each time.

Take `Cc1ccc(-n2c3nc(=O)n(C)c(=O)c-3nc3ccccc32)cc1`: the GI50 in the assay with DMS-273 was 4.3 µM (inactive); in the assay with HOP-18 it was 14.7 µM (inactive); in the assay with DLD-1, 27.6 µM (inactive); in the assay with LXFL 529, 36 µM (inactive); in the assay with DMS-114, 13.7 µM (inactive); with XF498 it was 25.4 µM (inactive).

With `COc1ccc2cccc(C(=N)c3ccc(C)c4c3CCC4)c2c1`, the GI50 in the assay on DMS-273 was 9.4 µM (inactive); in the assay on RXF 631, 1.37 µM (inactive); with HOP-18, 0.895 µM (active); in the assay with LXFL 529 it was 4.86 µM (inactive); with DMS-114, 7.08 µM (inactive).

Turning to `Oc1ccc([Te]CCNCC[Te]c2ccc(O)cc2)cc1`, the GI50 in the assay with DMS-273 was 18.2 µM (inactive); in the assay with RXF 631 it was 6.05 µM (inactive); in the assay on HOP-18, 26.4 µM (inactive); in the assay on DLD-1 it was 23 µM (inactive); in the assay on LXFL 529, 3.41 µM (inactive); in the assay with XF498 it was 5.11 µM (inactive).

In the case of `N[C@H](COCc1ccccc1)c1ccccc1`, the GI50 in the assay on DMS-273 is 23.1 µM (inactive); in the assay on HOP-18 it was 25.9 µM (inactive); in the assay with DLD-1, 24.9 µM (inactive); in the assay with LXFL 529, 20.5 µM (inactive); in the assay with DMS-114, 23.2 µM (inactive); in the assay with XF498, 21.1 µM (inactive).

Turning to `CCOC(=O)C1CC/C(=C(/C#N)C(=O)OC)N1` (configuration not stated), the GI50 with DMS-273, in the assay with DLD-1, in the assay with LXFL 529, with DMS-114 and with XF498 was > 100 µM (inactive) in each case.

Take `COc1ccc2nccc(C3=CCC4CCN(C(=O)c5ccccc5)C3C4)c2c1` (configuration not stated): the GI50 was > 100 µM (inactive) in the assay with DMS-273; > 100 µM (inactive) in the assay with DLD-1; > 100 µM (inactive) in the assay on LXFL 529; > 100 µM (inactive) with DMS-114; 92 µM (inactive) with XF498.

`COCc1c(CO)cnc(C)c1OC1OC(CO)C(O)C(O)C1O` (configuration not stated): the GI50 in the assay on DMS-273, in the assay on DLD-1, with LXFL 529, in the assay with DMS-114 and with XF498 was > 100 µM (inactive) each time.

In the case of `Nc1nc(OCc2ccccc2)c2nc[nH]c2n1` [6-O-BENZYLGUANINE], the GI50 was 93.1 µM (inactive) in the assay with DMS-273; 69.7 µM (inactive) with RXF 631; 87.3 µM (inactive) in the assay with HOP-18; 64.6 µM (inactive) with DLD-1; 93.3 µM (inactive) in the assay on LXFL 529; 64 µM (inactive) in the assay on DMS-114.

Consider `CC(=O)O/N=C(/C)c1ccccc1O`, for which the GI50 with DMS-273, in the assay on HOP-18, in the assay on DLD-1, in the assay with LXFL 529, in the assay with DMS-114 and with XF498 was > 100 µM (inactive) throughout.

`Cc1nc(-n2nc(-c3ccccc3)cc2-c2ccccc2)sc1C(=O)CC(=O)C(=O)Nc1ccc(O)cc1`: the GI50 in the assay on DMS-273, in the assay with RXF 631, with HOP-18, with DLD-1, in the assay with LXFL 529 and with DMS-114 was > 100 µM (inactive) throughout.

For `CC1(C)CC(=O)C=C(NC(=O)c2ccccc2)C1`, the GI50 with DMS-273, with RXF 631, with DLD-1, in the assay on LXFL 529, with DMS-114 and with XF498 was > 100 µM (inactive) in each case.

Take `CC#CC#C/C=C1\C=CC2(OC=CC2O)O1` (configuration not stated): the GI50 is > 23.3 µM (inactive) in the assay with DMS-273; 4.79 µM (inactive) with HOP-18; 8.93 µM (inactive) with DLD-1; 6.24 µM (inactive) with LXFL 529; 7.38 µM (inactive) in the assay on DMS-114; 9.4 µM (inactive) in the assay on XF498.

Consider `Cc1ccc(S(=O)(=O)Nc2ccccc2C(C)(C)C)cc1`, for which the GI50 with DMS-273 is 17.3 µM (inactive); with DLD-1 it was 30.8 µM (inactive); with LXFL 529, 24.9 µM (inactive); in the assay with DMS-114, 17.9 µM (inactive); in the assay with XF498, 22 µM (inactive).

For `COc1cc2ccnc3c2c(c1OC)-c1coc(SC)c1-3`, the GI50 in the assay on DMS-273 was 60.8 µM (inactive); in the assay on RXF 631, > 100 µM (inactive); in the assay with HOP-18, 38.6 µM (inactive); in the assay on DLD-1, 95.1 µM (inactive); in the assay with LXFL 529 it was 78.7 µM (inactive).
